Measured values taken from US20010006969A1, “PYRIMIDINE NUCLEUS-CONTAINING COMPOUND AND A MEDICAMENT CONTAINING THE SAME FOR A BLOOD OXYGEN PARTIAL PRESSURE AMELIORATION, AND A METHOD FOR PREPARING THE SAME” (priority 1997, published 2001).

Key:
[1] = system: hypoxemic model rats; experiment: Determination of oxygen partial pressure increasing action (arterial blood PaO2 gain in hypoxemic model rats); assay type: in vivo, Sprague-Dawley male rats; conditions: urethane-anesthetized rats, i.v. continuously 0.1 mg/kg/min, PaO2 measured 10 minutes after completion of administration, gain before vs after
Experimental: Determination of oxygen partial pressure increasing action
Actions of the quinazoline derivatives of the present invention to increase oxygen partial pressure in the arterial blood were determined according to the following method:
Sprague-Dawley male rats having body weights of about 250 g were anesthetized (i.p.) with urethane and cannulated to the respiratory tracts, femoral arteries and femoral veins. An olive oil-charcoal powder suspension (10 mg/ml) was introduced in an amount of 0.8 ml/kg through the respiratory tract cannulae into the lungs to cause the rats to hypoxic state (PaO2≦75 mmHg). The quinazoline derivatives listed in Table 1 were intravenously administered to these hypoxemic model rats continuously at a rate of 0.1 mg/kg/min, and arterial blood oxygen partial pressure value (PaO2) of each rat was measured at the time point of 10 minutes after completion of administration using a blood gas analyzer (Ciba Corning 800 series). Gains (APaO2) were determined based on results of PaO2 measurement made before and after administration of the test compounds.
Actions of the thienopyrimidine derivatives of the present invention to increase oxygen partial pressure in the arterial blood were determined according to the following method:
Sprague-Dawley male rats having body weights of about 250 g were anesthetized (i.p.) with urethane and cannulated to the respiratory tracts, femoral arteries and femoral veins. An olive oil-charcoal powder suspension (10 mg/ml) was introduced in an amount of 0.8 ml/kg through the respiratory tract cannulae into the lungs to cause the rats to be under hypoxic state (PaO2 Δ 75 mmHg). The thienopyrimidine derivatives listed in Table 2 were intravenously administered to these hypoxemic model rats continuously at a rate of 0.1 mg/kg/min, and arterial blood oxygen partial pressure value (PaO2) of each rat was measured at the time point of 10 minutes after completion of administration using a blood gas analyzer (Ciba Corning 800 series). Gains (ΔPaO2) were determined based on results of PaO2 measurement made before and after administration of the test compounds.

[2] = quinazoline derivatives, hypoxic state (PaO2≦75 mmHg) by olive oil-charcoal powder suspension
[3] = thienopyrimidine derivatives, hypoxic state (PaO2 Δ 75 mmHg) by olive oil-charcoal powder suspension

Row | melting point | Structure (SMILES) | ΔPaO2 [1, 2] [mmHg] | ΔPaO2 [1, 3] [mmHg]
1 | 171 to 172 °C | CCCCNc1nc(NCC=C(C)C)c2cc([N+](=O)[O-])ccc2n1 [Example 60, 2-Butylamino-4-(3-methyl-2-butenylamino)-6-nitroquinazoline] | 27 | 
2 | 216 to 217 °C | C=CCNc1nc(NCc2ccccc2)nc2ccc([N+](=O)[O-])cc12 [Example 6, 4-Allylamino-2-benzylamino-6-nitroquinazoline] | 48 | 
3 | 68 to 70 °C | C=CCNc1nc(NCCCC)c2scc(C)c2n1 [Example 81, 2-Allylamino-4-butylamino-7-methylthieno[3,2-d]pyrimidine] |  | 29
4 | 65 to 66 °C | C=CCNc1nc(NCCCCCCCCC)c2scc(C)c2n1 [Example 80, 2-Allylamino-4-nonylamino-7-methylthieno[3,2-d]pyrimidine] |  | 28
5 | 96 to 97 °C | C=CCNc1nc(NCC)c2scc(C)c2n1 [Example 76, 2-Allylamino-4-ethylamino-7-methylthieno[3,2-d]pyrimidine] |  | 33
6 | 198 to 200 °C (dec.) | C=CCNc1nc(NCC=C)c2cc([N+](=O)[O-])ccc2n1 [Example 3, 2,4-Diallylamino-6-nitroquinazoline] | 28 | 
7 | 167 to 168 °C | C=CCNc1nc(NCC(C)(C)C)nc2ccc([N+](=O)[O-])cc12 [Example 5, 4-Allylamino-2-neopentylamino-6-nitroquinazoline] | 43 | 
8 | 77 to 80 °C | C=CCNc1nc(NCC=C)c2scc(C)c2n1 [Example 66, 2,4-Diallylamino-7-methylthieno[3,2-d]pyrimidine] |  | 26
9 | 211 to 212 °C | C=CCNc1nc(NCCC)c2cc([N+](=O)[O-])ccc2n1 [Example 10, 2-Allylamino-6-nitro-4-propylaminoquinazoline] | 34 | 
10 | 215 to 216 °C | C=CCNc1nc(NCC)c2cc([N+](=O)[O-])ccc2n1 [Example 22, 2-Allylamino-4-ethylamino-6-nitroquinazoline] | 27 | 
11 | 211 to 212 °C | C=CCNc1nc(NC)c2cc([N+](=O)[O-])ccc2n1 [Example 21, 2-Allylamino-4-methylamino-6-nitroquinazoline] | 26 | 
